Experimental data taken from ChEMBL document CHEMBL1131278, “Synthesis and in vitro cancer cell growth inhibitory activity of monocyclic model compounds containing spongistatin triene side-chains” (Bioorg Med Chem Lett, 1998).
≈ marks a conversion by molar mass, not a printed value.

Legend:
Type in all cases: functional
BXPC-3 = assay: In vitro growth inhibitory activity against cancer cell line Pancreas-a BXPC-3; conditions: Homo sapiens
DU-145 = assay: In vitro growth inhibitory activity against cancer cell line Prostate DU-145; conditions: Homo sapiens
FaDu = assay: In vitro growth inhibitory activity against cancer cell line Pharynx-sq FADU; conditions: Homo sapiens
NCI-H460 = assay: In vitro growth inhibitory activity against cancer cell line Lung-NSC NCI-H460; conditions: Homo sapiens
SW-1736 = assay: In vitro growth inhibitory activity against cancer cell line Thyroid ca SW 1736; conditions: Homo sapiens
SK-N-SH = assay: In vitro growth inhibitory activity against cancer cell line Neuroblast SK-N-SH; conditions: Homo sapiens
Tubulin alpha chain = Tubulin alpha chain (Sus scrofa, UniProt P02550); assay: Compound was tested for its ability to inhibit the glutamate induced polymerization of tubulin
Chain of Tubulin alpha chain (P02550 whole entry, looked up): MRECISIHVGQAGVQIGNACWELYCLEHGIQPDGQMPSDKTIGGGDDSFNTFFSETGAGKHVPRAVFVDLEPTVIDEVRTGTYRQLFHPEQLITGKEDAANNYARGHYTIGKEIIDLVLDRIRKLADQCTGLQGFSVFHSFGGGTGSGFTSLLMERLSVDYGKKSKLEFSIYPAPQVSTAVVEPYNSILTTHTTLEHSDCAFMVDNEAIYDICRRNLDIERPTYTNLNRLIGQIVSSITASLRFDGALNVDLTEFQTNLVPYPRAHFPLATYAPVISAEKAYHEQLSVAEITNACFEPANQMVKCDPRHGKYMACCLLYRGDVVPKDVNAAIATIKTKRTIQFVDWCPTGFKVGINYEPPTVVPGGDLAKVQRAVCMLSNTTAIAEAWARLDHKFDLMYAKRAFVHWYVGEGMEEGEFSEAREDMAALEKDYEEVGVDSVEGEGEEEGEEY

GI50 (BXPC-3)	GI50 (DU-145)	GI50 (NCI-H460)	GI50 (SW-1736)	GI50 (SK-N-SH)	Structure (SMILES)	GI50 (FaDu)	IC50 (Tubulin alpha chain)
0.25 µg/mL (≈ 0.438 µM)	0.32 µg/mL (≈ 0.561 µM)	0.26 µg/mL (≈ 0.456 µM)	0.7 µg/mL (≈ 1.23 µM)	0.31 µg/mL (≈ 0.543 µM)	C=C/C=C/[C@@H](O)CC(=C)C[C@H]1O[C@H](OC)[C@H](OCc2ccccc2)[C@@H](OCc2ccccc2)[C@@H]1OCc1ccccc1	0.27 µg/mL (≈ 0.473 µM)	–
3.2 µg/mL (≈ 5.29 µM)	> 10 µg/mL	6.6 µg/mL (≈ 10.9 µM)	5.8 µg/mL (≈ 9.58 µM)	2.2 µg/mL (≈ 3.64 µM)	C=C(Cl)/C=C/[C@@H](O)CC(=C)C[C@H]1O[C@H](OC)[C@H](OCc2ccccc2)[C@@H](OCc2ccccc2)[C@@H]1OCc1ccccc1	5 µg/mL (≈ 8.26 µM)	–
–	–	–	–	–	C=C(Cl)/C=C/[C@@H](O)C(C)C(=C)C[C@H]1O[C@@H]2[C@H](C)[C@@H](OC(=O)C[C@H]3C[C@H](OC(C)=O)C[C@@]4(C[C@@](C)(O)C[C@H](CC(=C)[C@@H](C)[C@H](OC(C)=O)[C@H](C)C(=O)C[C@@H]5C[C@H](OC)C[C@@]6(C[C@@H](O)C[C@H](/C=C\CCC[C@H]7O[C@](O)(C[C@H](O)[C@H]7C)[C@H]2O)C6)O5)O4)O3)[C@@H]1O (stereo partly drawn) [Spongistatin-1]	–	3.6 µM
